Assays:
[1] = test system: iPSC-derived M2 macrophages; assay: Fluorescent phagocytosis screening assay, iPSC-derived M2 macrophages against glioma cells; assay type: cell-based, human
[2] = test system: bone marrow-derived macrophages (BMDMs); assay: Phagocytosis assay, bone marrow-derived macrophages against glioma cells; assay type: cell-based, mouse; details: MK-8931 50 μg/mL two days; T4121; p<0.001
[3] = test system: GBM xenografts derived from T4121 GSCs; assay: Intracranial GBM xenografts from T4121 glioma stem cells; assay type: in vivo, mouse
Excerpt: FIG. 4, panels A-F. BACE1 Inhibition by MK-8931 Converts M2 TAMs into M1 Macrophages to Phagocytize Glioma Cells in GBM Xenografts. (A and B) Density analysis of M2 TAMs by immunofluorescent staining of the M2 TAM marker (CD163 or FIZZ1) and the total TAM marker IBA1 and in GBM xenografts treated with MK-8931 or vehicle control. GBM xenografts were established by implantation of glioma stem cells (T4121) through intracranial injection. […] Representative immunofluorescent images (A) showing M2 TAMs (CD163^+ or FIZZ1^+, in red) and total TAMs (IBA1^+, in green) in the MK-8931-treated or control GBM xenografts. […] (C and D) Density analysis of M1 TAMs by immunofluorescent staining of the M TAM marker (HLA-DR or CD11c) and the total TAM marker IBA1 and in GBM xenografts treated with MK-8931 or vehicle control. […] Representative immunofluorescent images (C) showing M1 TAMs (HLA-DR^+ or CD11c^+, in red) and total TAMs (IBA1^+, in green) in the MK-8931-treated or control GBM xenografts. […] (E and F) In vivo phagocytosis of TAMs against human glioma cells in the MK-8931-treated or control GBM xenografts. […] Representative images (E) showing in vivo TAM phagocytosis as inclusion bodies of glioma cells (TRA-1-85^+, in red) with TAMs (IBA1, in green) in the MK-8931 treated GBM xenografts but not in the control tumors. […] Scale bar represents 30 μM. Ctl: Control; MK: MK-8931.

[4] = test system: GBM xenografts (T387); assay: Intracranial GBM xenografts from T387 glioma stem cells; assay type: in vivo, mouse
Excerpt: FIG. 13, panels A-C. BACE1 Inhibition by MK-8931 Converts M2 TAMs into M1 Macrophages in GBM Xenografts. (A and B) Density analysis of M2 TAMs by immunofluorescent staining of the M2 TAM marker (CD163 or FIZZ1) and the total TAM marker IBA1 and in GBM xenografts (T387) treated with MK-8931 or vehicle control. GBM xenografts were established by implantation of glioma stem cells (T387) through intracranial injection. […] Representative immunofluorescent images (A) showing M2 TAMs (CD163′ or FIZZ1^+, in red) and total TAMs (IBA1^+, in green) in the MK-8931-treated or control GBM xenografts. […] (C and D) Density analysis of M1 TAMs by immunofluorescent staining of the M TAM marker (HLA-DR or CD11c) and the total TAM marker IBA1 and in GBM xenografts (T387) treated with MK-8931 or vehicle control. […] Representative immunofluorescent images (C) showing M1 TAMs (HLA-DR^+ or CD11c^+, in red) and total TAMs (IBA1^+, in green) in the MK-8931-treated or control GBM xenografts. […] Scale bars represent 3 μM. Ctl: Control; MK: MK-8931.
(A-C) A preclinical trial of MK-8931 for GBM treatment in GSC-derived xenograft models. […] When humane endpoints occur, mouse was anesthetized and brain bearing tumor was harvested. Representative bioluminescent images (A) of intracranial GBM xenografts treated with MK-8931 or the vehicle control on day 7 (before treatment), day 17 and day 27 (treatment for 10 and 20 days) are shown. […] (D and E) In vivo phagocytosis of TAMs against human glioma cells in GBM xenografts treated with MK-8931 or the vehicle control. […] Representative images (D) showing in vivo TAM phagocytosis as the inclusion body of a glioma cell (TRA-1-85+, in red) within a TAM (IBA1^+, in green) in the MK-8931 treated GBM xenografts but not in the control tumors. […] (F and G) Detection of apoptosis by immunofluorescent staining of cleaved caspase-3 the GSC-derived xenografts treated with MK-8931 or the vehicle control. […] (H and I) Vessel density analysis by immunofluorescent staining of CD31 in the GSC-derived xenografts treated with MK-8931 or the vehicle control.

[5] = test system: GSCs (T387 and T4121); assay: Immunoblot of apoptotic markers in glioma stem cells; assay type: cell-based, human; details: MK-8931 50 μg/mL, different times
Protocol: FIG. 16, panels A-E. MK-8931 Treatment Had Little Effect on Glioma Stem Cells. (A and B) Tumorsphere formation assay to examine the effect of MK-8931 treatment on glioma stem cells (GSCs). Representative images (A) of tumorsphere derived from T4121 GSCs treated with MK-8931 (50 μg/mL) or the vehicle control. Quantifications (B) show the number and size of tumorsphere derived from T4121 GSCs treated with MK-8931 (50 μg/mL) or the control. Data are shown as mean±SEM. NS (not significant)≥0.05, Student's t-test. […] GAPDH was blotted as loading control. (D) Immunoblot analysis of the apoptotic markers cleaved-PARP and cleaved caspase-3 in GSCs (T387 and T4121) treated with MK-8931 (50 μg/mL), etoposide (Etop, 1 μM), or the vehicle control for different time as indicated. GAPDH was blotted as loading control. […] Ctl: Control; Etop: Etoposide. (E) Cell viability assay to examine the effect of MK-8931 treatment on proliferation of glioma stem cells. […] Data are shown as mean±SEM. NS (not significant)≥0.05, Student's t-test.

[6] = 30 mg/kg once daily oral gavage two weeks
[7] = 30 mg/kg once daily oral gavage two weeks, p<0.001
[8] = 30 mg/kg once daily oral, p<0.01
[9] = 30 mg/kg once daily oral, p<0.05

## CN1C(N)=N[C@](C)(c2cc(NC(=O)c3ccc(F)cn3)ccc2F)CS1(=O)=O [MK-8931]
[1]
  macrophage phagocytosis against cancer cells: promotes macrophage phagocytosis against cancer cells
[1]; MK-8931 50 μg/mL two days, T4121 tdTomato cells co-incubated two hours, p<0.001 vs vehicle
  phagocytosis of iPSC-derived macrophages against human glioma cells (inclusion bodies): potently induced phagocytosis of iPSC-derived macrophages
[1]; glioma cells and lung ADC cells
  screen of drug libraries and known inhibitors for promoters of macrophage phagocytosis: hit: hits
[2]
  phagocytosis of BMDMs against human glioma cells: significantly promoted phagocytosis of BMDMs
[3]; [6]
  IBA1+/pSTAT3+ double positive cells (TAMs): significantly reduced STAT3 activating phosphorylation in TAMs
  pSTAT3+ cells in xenografts: significantly reduced STAT3 activating phosphorylation in GBM xenografts
[3]; [7]
  density of M1 TAMs (HLA-DR+/IBA1+ or CD11c+/IBA1+): significantly increased density of M1 TAMs
  density of M2 TAMs (CD163+/IBA1+ or FIZZ1+/IBA1+): significantly reduced density of M2 TAMs
[3]; 30 mg/kg once daily oral gavage, p<0.01
  in vivo TAM phagocytosis (inclusion bodies of TRA-1-85+ glioma cells with IBA1+ TAMs): promoted TAM phagocytosis
[4]; [7]
  density of M1 TAMs (HLA-DR+/IBA1+ or CD11c+/IBA1+): significantly increased density of M1 TAMs
  density of M2 TAMs (CD163+/IBA1+ or FIZZ1+/IBA1+): significantly reduced density of M2 TAMs
[4]; 30 mg/kg once daily oral, day 7, 17 and 27
  tumor growth (mean bioluminescence): Suppressed GBM Tumor Growth
[4]; 30 mg/kg once daily oral, log-rank p<0.05
  survival (Kaplan-Meier): significantly extended the survival of animals bearing the GBM xenografts
[4]; [8]
  apoptosis (cleaved caspase-3+ cells): significantly increased apoptosis
  in vivo TAM phagocytosis (inclusion bodies): promoted TAM phagocytosis
  proliferative cells (Ki-67+): significantly reduced proliferative cells
[4]; [9]
  GSC population (SOX2+ cells): significant reduced GSCs
  vessel density (CD31): significantly reduced vessel density
[5]
  apoptotic markers cleaved-PARP and cleaved caspase-3: did not induce apoptosis in GSCs in vitro

— patent US11559528B2, “BACE1 inhibition for the treatment of cancer” (The Cleveland Clinic Foundation, priority 2019, dated 2023)
